# Assay results taken from patent US11813250B2, “Topical formulations containing mTOR inhibitors” (Shanghai Aucta Pharmaceuticals Co., Ltd., priority 2020, dated 2023).
# Read-outs that look alike come from different tables or passages of the source.
# Key:
# [1] = Solubility in topical solvents; type: physicochemical; details: organic solvent or mixture
# Method: This example evaluated sirolimus and everolimus solubility and stability in various FDA approved topical solvents and co-solvent systems such as diethylene glycol monoethyl ether (Transcutol® P as manufactured by Gattefosse), N-Methyl-2-pyrrolidone (NMP), dimethyl sulfoxide (DMSO), ethanol, Caprylocaproyl polyoxyl-8 glycerides (Labrasol® as manufactured by Gattefosse) and propylene carbonate combined or alone.
# The melting point of DMSO is 19° C. (66° F.; 292 K), thus it will freeze under refrigerated condition.
# [2] = cited from earlier work
# [3] = Everolimus isomer C stability study in various solvents at 50° C.; type: physicochemical
# Method: The formulation of this example was prepared in substantially the same manner as the composition of Example 1.
# Experiments were performed to study the stability of everolimus in Transcutol P, NMP, DMSO and propylene carbonate under 40° C. at concentration of 20 mg/ml and everolimus in Transcutol P, NMP, DMSO, ethanol, Labrasol and propylene carbonate under 50° C. at concentration of 80 mg/ml. […] DMSO, NMP and propylene carbonate stabilized sirolimus and everolimus and could be used as dissolving agents together or separately.
# Everolimus concentrations are at 80 mg/ml in the solvent and co-solvent systems. The said solution was stored at 50° C. oven and samples were evaluated at time 0, 1 h, 2 h and 4 h.
# [4] = Seco-Rapamycin in various solvents under 40° C. for 24 hr; type: physicochemical; details: for percentage of Seco-Rapamycin in the overall amount of sirolimus: 40° C.
# Method: (§1) Sirolimus concentrations are at 20 mg/ml in the solvent and co-solvent systems. The solution was stored at 40° C. oven and samples were evaluated at time 0, 1, 4 and 24 hours with HPLC analysis.
# Seco-Rapamycin is a major decomposition product of sirolimus, the open ring conformation of Rapamycin (sirolimus), is also quantitated in the solvent systems. […] The initial concentrations of Seco-Rapamycin were undetectable in the tested samples. Less than 0.5% of sirolimus converted or degraded to Seco-Rapamycin in Propylene Carbonate, DMSO and NMP.
# [5] = Sirolimus isomer C stability in various solvents under 40° C. for 24 hr (HPLC); type: physicochemical
# Method: as §1
# [6] = DMSO, room temperature, read-out: solubility in DMSO
# [7] = N-Methyl-2-pyrrolidone (NMP), both room temperature and refrigerated condition, read-out: solubility in NMP
# [8] = Transcutol P (diethylene glycol monoethyl ether), both room temperature and refrigerated condition, read-out: solubility in Transcutol P
# [9] = propylene carbonate, both room temperature and refrigerated condition, read-out: solubility in propylene carbonate
structure (smiles),measurement,setting,value
CO[C@H]1C[C@@H]2CC[C@@H](C)[C@@](O)(O2)C(=O)C(=O)N2CCCC[C@H]2C(=O)O[C@H]([C@H](C)C[C@@H]2CC[C@@H](OCCO)[C@H](OC)C2)CC(=O)[C@H](C)/C=C(\C)[C@@H](O)[C@@H](OC)C(=O)[C@H](C)C[C@H](C)/C=C/C=C/C=C/1C [Everolimus],solubility,[1]; [6],> 200 mg/mL
same,solubility,[1]; [7],> 100 mg/mL
same,solubility,[1]; [8],> 100 mg/mL
same,solubility,[1]; [9],> 100 mg/mL
same,water solubility,[2],poorly water-soluble
same,Isomer C level (%),"[3]; everolimus 80 mg/ml in DMSO, 0 h",1.63%
same,Isomer C level (%),"[3]; everolimus 80 mg/ml in DMSO, 1 h",1.67%
same,Isomer C level (%),"[3]; everolimus 80 mg/ml in DMSO, 2 h",1.73%
same,Isomer C level (%),"[3]; everolimus 80 mg/ml in DMSO, 4 h",1.86%
same,Isomer C level (%),"[3]; everolimus 80 mg/ml in Ethanol, 0 h",1.85%
same,Isomer C level (%),"[3]; everolimus 80 mg/ml in Ethanol, 1 h",2.66%
same,Isomer C level (%),"[3]; everolimus 80 mg/ml in Ethanol, 2 h",3.81%
same,Isomer C level (%),"[3]; everolimus 80 mg/ml in Ethanol, 4 h",5.40%
same,Isomer C level (%),"[3]; everolimus 80 mg/ml in NMP, 0 h",1.62%
same,Isomer C level (%),"[3]; everolimus 80 mg/ml in NMP, 1 h",1.76%
same,Isomer C level (%),"[3]; everolimus 80 mg/ml in NMP, 2 h",1.86%
same,Isomer C level (%),"[3]; everolimus 80 mg/ml in NMP, 4 h",1.99%
same,Isomer C level (%),"[3]; everolimus 80 mg/ml in Propylene Carbonate, 0 h",1.63%
same,Isomer C level (%),"[3]; everolimus 80 mg/ml in Propylene Carbonate, 1 h",1.84%
same,Isomer C level (%),"[3]; everolimus 80 mg/ml in Propylene Carbonate, 2 h",2.06%
same,Isomer C level (%),"[3]; everolimus 80 mg/ml in Propylene Carbonate, 4 h",2.47%
same,Isomer C level (%),"[3]; everolimus 80 mg/ml in Transcutol P, 0 h",1.71%
same,Isomer C level (%),"[3]; everolimus 80 mg/ml in Transcutol P, 1 h",3.78%
same,Isomer C level (%),"[3]; everolimus 80 mg/ml in Transcutol P, 2 h",5.26%
same,Isomer C level (%),"[3]; everolimus 80 mg/ml in Transcutol P, 4 h",6.43%
same,increase of the assay of everolimus isomer C,"[3]; from 0 h to 4 h in DMSO, propylene carbonate and NMP, 80 mg/ml",less than 1.5%
CO[C@H]1C[C@@H]2CC[C@@H](C)[C@@](O)(O2)C(=O)C(=O)N2CCCC[C@H]2C(=O)O[C@H]([C@H](C)C[C@@H]2CC[C@@H](O)[C@H](OC)C2)CC(=O)[C@H](C)/C=C(\C)[C@@H](O)[C@@H](OC)C(=O)[C@H](C)C[C@H](C)/C=C/C=C/C=C/1C [Sirolimus],solubility,[1]; [6],> 100 mg/mL
same,solubility,[1]; [7],> 100 mg/mL
same,solubility,[1]; [8],> 80 mg/mL
same,solubility,[1]; [9],~30 mg/mL
same,initial concentrations of Seco-Rapamycin,"[4]; in the tested samples, time 0",undetectable
same,percentage of Seco-Rapamycin in the overall amount of sirolimus,"[4]; sirolimus in 50% NMP + 50% DMSO, 4 h",0.09%
same,percentage of Seco-Rapamycin in the overall amount of sirolimus,"[4]; sirolimus in 50% NMP + 50% DMSO, 24 h",0.13%
same,percentage of Seco-Rapamycin in the overall amount of sirolimus,"[4]; sirolimus in DMSO, 4 h",0.23%
same,percentage of Seco-Rapamycin in the overall amount of sirolimus,"[4]; sirolimus in DMSO, 24 h",0.44%
same,percentage of Seco-Rapamycin in the overall amount of sirolimus,"[4]; sirolimus in NMP, 4 h",0.12%
same,percentage of Seco-Rapamycin in the overall amount of sirolimus,"[4]; sirolimus in NMP, 24 h",0.26%
same,percentage of Seco-Rapamycin in the overall amount of sirolimus,"[4]; sirolimus in Propylene Carbonate, 24 h",0.08%
same,percentage of Seco-Rapamycin in the overall amount of sirolimus,"[4]; sirolimus in Transcutol P, 0 h",0.20%
same,percentage of Seco-Rapamycin in the overall amount of sirolimus,"[4]; sirolimus in Transcutol P, 1 h",0.23%
same,percentage of Seco-Rapamycin in the overall amount of sirolimus,"[4]; sirolimus in Transcutol P, 4 h",0.76%
same,percentage of Seco-Rapamycin in the overall amount of sirolimus,"[4]; sirolimus in Transcutol P, 24 h",1.06%
same,water solubility,[2],poorly water-soluble
same,sirolimus converted to isomer C after time 0,"[5]; in NMP, DMSO and propylene carbonate within 24 hours",less than 1.5%
same,Isomer C level (%),"[5]; sirolimus 20 mg/ml in 50% NMP + 50% DMSO, 0 h",1.07%
same,Isomer C level (%),"[5]; sirolimus 20 mg/ml in 50% NMP + 50% DMSO, 1 h",1.15%
same,Isomer C level (%),"[5]; sirolimus 20 mg/ml in 50% NMP + 50% DMSO, 4 h",1.46%
same,Isomer C level (%),"[5]; sirolimus 20 mg/ml in 50% NMP + 50% DMSO, 24 h",1.46%
same,Isomer C level (%),"[5]; sirolimus 20 mg/ml in DMSO, 0 h",1.51%
same,Isomer C level (%),"[5]; sirolimus 20 mg/ml in DMSO, 1 h",1.23%
same,Isomer C level (%),"[5]; sirolimus 20 mg/ml in DMSO, 4 h",1.72%
same,Isomer C level (%),"[5]; sirolimus 20 mg/ml in DMSO, 24 h",2.50%
same,Isomer C level (%),"[5]; sirolimus 20 mg/ml in NMP, 0 h",1.00%
same,Isomer C level (%),"[5]; sirolimus 20 mg/ml in NMP, 1 h",1.02%
same,Isomer C level (%),"[5]; sirolimus 20 mg/ml in NMP, 4 h",1.21%
same,Isomer C level (%),"[5]; sirolimus 20 mg/ml in NMP, 24 h",1.46%
same,Isomer C level (%),"[5]; sirolimus 20 mg/ml in Propylene Carbonate, 0 h",1.12%
same,Isomer C level (%),"[5]; sirolimus 20 mg/ml in Propylene Carbonate, 1 h",1.12%
same,Isomer C level (%),"[5]; sirolimus 20 mg/ml in Propylene Carbonate, 4 h",1.46%
same,Isomer C level (%),"[5]; sirolimus 20 mg/ml in Propylene Carbonate, 24 h",2.77%
same,Isomer C level (%),"[5]; sirolimus 20 mg/ml in Transcutol P, 0 h",4.93%
same,Isomer C level (%),"[5]; sirolimus 20 mg/ml in Transcutol P, 1 h",7.11%
same,Isomer C level (%),"[5]; sirolimus 20 mg/ml in Transcutol P, 4 h",8.14%
same,Isomer C level (%),"[5]; sirolimus 20 mg/ml in Transcutol P, 24 h",8.18%
